Consider one molecule from US4728640A, “Treatment of dysmenorrhea” (Roussel Uclaf, priority 1985, dated 1988).

In test [1] the test system is testicular steroidogensis. The test is described as follows: Inhibitory activity against testicular steroidogenesis in healthy men, single intranasal dose. The test is classed as in vivo. The note with it: for steroid/testosterone level on the fourth day after administration: fourth day (until 6th day). As for the experimental part:
The inhibitory activity of [D Ser (tbu)^6 of des Gly NH2^10 ] LH-RH ethylamide (described in German application Ser. No. 2,438,350) against testicular steroidogensis in men in good health was determined on men in good health aged 30 to 40 years. The said product was administered intranasally at a dose of 500 μg in a few drops of distilled water at 8 A.M. on the third day of the test. For 2 days prior to the treatment and for 6 days after the treatment, samples of blood were taken daily at 8 A.M., 3 P.M. and 10 P.M. On the day of administration of the LH-RH agonist, blood samples were taken at 11 A.M. and 6 P.M.
The seric concentrations of LH and FSH were measured by radioimmuno-logic dosages with double antibodies and the antibodies for measuring LH and FSH were furnished by the National Pituitary Agency of N.I.H. in Bethesda, Md. The seric concentrations of steroids was measured by radioimmuno-logic dosages in which one ml of serum was extracted with ether and the steroids were separated on a LH-20 column before measuring with radioimmuno-logic dosages. The radioimmuno-logic dosage results were determined by a program derived from model II of Rodbard et al [Second Karolinska Symposium on Research Methods in Reproductive Endrocrinology, Diczfalusky Editor, Copenhague (1970), p. 79-103]. The statistical significance was determined by the "multiple level test" of Duncan-Kramer [Kramer, Biometrics, Vol 12 (1956), p. 307]. The results are shown in the graphs on sheet 1 of the Figures filed herewith.

Test [2] concerns testicular steriodogenosis. The test is described as follows: Inhibitory activity on testicular steroidogenesis in a patient with prostate cancer, intranasal twice a day. The test is classed as in vivo, human. The note with it: 500 μg intranasally twice a day. An excerpt:
The inhibitory activity of [D Ser (tbu)^6 des Gly NH2^10 ] […] The results are reported in the graphs of sheet 2 of the Figures.

The next test relates to ovarian steroidogenosis. The test is described as follows: Inhibitory activity on ovarian steroidogenesis in women, intranasal. The note with it: for reduction of seric levels of progesterone compared to the controls: typical subject (sheet 3). The test is classed as in vivo. The method, then:
The inhibitory activity of [D Ser (tbu)^6 des Gly NH2^10 ] LH-RH ethylamide on ovarian steroidogenosis in women was determined on 6 women aged 26 to 35 years with normal and regular menstrual cycles and without prior endocrinal or gynecological problems. […] Two drops of a solution containing 500 μg of [D Ser (tbu)^6 des Gly NH2^10 ] LH-RH ethylamide were deposited on each nostril at 8 A.M. and 5 P.M. of a day between the 4th and 9th day after the peak of LH-day 0. Daily blood samples were taken between 4 and 6 P.M. to measure seric levels of LH, FSH, progesterone and estradiol which were determined by radioimmuno-logictests with double antibodies. The antibodies to measure LH and FSH were furnished by the National Pituitory Agency of N.I.H. of Bethesda, Md.
Estradiol and progesterone were measured with highly specific antibodies developed against 7-(O-carboxymethyl)-oxime of estradiol and 12-(O-carboxymethyl)-oxime of progesterone, respectively [3H]17β-estradiol and ^125 I-progesterone-12-[O-carboxymethyl)-oxime] used as tracers. The serum was extracted with benzene and the steroids were separated with a LH-20 column before the determination. The radioimmunological results were exploited by the program derived from model II of Rodbard and Lewald as in Example 1 and the statistical significance was measured by the multiple level test of Ducan-Kramer of Example 1. The results are shown in the graphs of sheets 3 to 5 of the Figures.

Where [3] appears, read: human, single intranasal dose 500 μg.
The mark [4] stands for this setting: men, intranasal 500 μg, 3rd day following administration.

With `CCNC(=O)[C@@H]1CCCN1C(=O)[C@H](CCCNC(=N)N)NC(=O)[C@H](CC(C)C)NC(=O)[C@@H](COC(C)(C)C)NC(=O)[C@H](Cc1ccc(O)cc1)NC(=O)[C@H](CO)NC(=O)[C@H](Cc1c[nH]c2ccccc12)NC(=O)[C@H](Cc1c[nH]cn1)NC(=O)[C@@H]1CCC(=O)N1` [[D Ser (tbu)^6 des Gly NH2^10] LH-RH ethylamide], in test [1] (setting [3]), the “duration of the drop of seric levels of testicular steroids (testosterone and its precursors)” value came out at 3 days. The “diminution of the level of testosterone” value in test [1] (human, single intranasal dose 500 μg, 3rd day following administration) is 50%. For the same molecule, the “steroid/testosterone level on the fourth day after administration” value in test [1] (setting [3]) is “returned to normal”; in test [1] (human, single intranasal dose 500 μg, listed as the peptide), “return to normal levels”. The “LH and FSH plasmatic levels” value in test [1] (men, intranasal 500 μg) is on record as “increase”. Further, in test [1] (setting [4]), the “concentration of 17-OH-progesterone relative to initial control values” stood at 40%. Besides, the “concentration of testosterone relative to initial control values” in test [1] (setting [4]) is recorded as 50%. For the same molecule, the “seric concentration of pregnenolone, 17-OH-pregnenolone, progesterone, 17-OH-progesterone, Δ5-androstene-3β,17β-diol and testosterone” value in test [1] (men, intranasal 500 μg, day of treatment) was “increased”. Besides, the “level of androgenic steroids” value in test [2] is on record as “diminution”. In addition, in test [2] (two weeks of treatment), the level of testosterone entry is reported as “stabilized at a very low level”. Further, the entries for the “level of seric progesterone, course” value with ovarian steroidogenosis (2 cycles of post-treatment) and in the test on ovarian steroidogenosis (2 cycles of treatment) were “return to normal” and “accelerated diminution”, respectively. In addition, the “reduction of the level of progesterone compared to the controls” value in the test with ovarian steroidogenosis (12 cycles of treatment (sheet 5), scale 13 to 127%) was determined as 46%. Further, the entries for the “progesterone level as % of pretreatment cycles (base 100%)” value with ovarian steroidogenosis (cycles of post-treatment (12 cycles)) and in the test on ovarian steroidogenosis (cycles of treatment (12 cycles)) were 99% and 46%, respectively. Further, the entries for the “reduction of seric levels of progesterone compared to the controls” value with ovarian steroidogenosis (first cycle of treatment) and with ovarian steroidogenosis (second cycle of treatment) were 13% and 34%, respectively.
